ChEMBL document CHEMBL5096212, “Development of a water-soluble ryanodine receptor 1 inhibitor” (Bioorg Med Chem, 2022)
pEC50: −log10 of the molar value. Values after ≈ are worked out from the molar mass of the structure shown.

Assays:
[1] = Solubility of the compound in 30% EtOH/PBS measured after 48 hrs by HPLC analysis; type: physicochemical
[2] = Inhibition of RyR1 R2163C mutant (unknown origin) expressed in HEK293 cells measured every 10s for 300s by R-CEPIA1er based fluorescence analysis; type: cell-based, Homo sapiens
[3] = Solubility of the compound in saline measured after 48 hrs by HPLC analysis; type: physicochemical; conditions: buffer

## CCCCCCCn1cc(C(=O)O)c(=O)c2cc3c(cc21)OCO3
[1]
  solubility at 48 h: 54 µg/mL (≈ 163 µM)
[2]
  pEC50: 7.96

## CCCCCCCCn1cc(C(=O)[O-])c(=O)c2cc3c(cc21)OCO3.[Na+]
[3]
  solubility: 0.84 µg/mL

## CCCCCCCCn1cc(C(=O)O)c(=O)c2cc3c(cc21)OCO3
[1]
  solubility at 48 h: 4.7 µg/mL (≈ 13.6 µM)
[2]
  pEC50: 7.92

## CCCCCCCCn1cc(C(=O)O)c(=O)c2cnc(OC)cc21
[1]
  solubility at 48 h: 414 µg/mL (≈ 1250 µM)
[2]
  pEC50: 7.17

## CCCCCCCn1cc(C(=O)[O-])c(=O)c2cc3c(cc21)OCO3.[Na+]
[3]
  solubility: 3.9 µg/mL

## CCCCCCCCn1cc(C(=O)[O-])c(=O)c2cnc(OC)cc21.[Na+]
[3]
  solubility: 27 µg/mL

## CCCCCCn1cc(C(=O)O)c(=O)c2cc3c(cc21)OCO3
[2]
  pEC50: 7.15

## CCCCCCCn1cc(C(=O)O)c(=O)c2cnc(OC)cc21
[2]
  pEC50: 6.28

## CCCCCCCCn1cc(C(=O)O)c(=O)c2c(OC)nccc21
[2]
  pEC50: 5.77
